Source: patent US10695296B2, “Formulations, methods, kit, and dosage forms for improved stability of an active pharmaceutical ingredient” (Asana BioSciences, LLC, priority 2017, dated 2020)
Values joined by “and” are separate entries in the source; they are usually repeats but may differ in a detail not shown here. Identical values can stand only once. Like-named read-outs stand apart in the source and are kept apart here.

Assay: PK characteristics in humans (plasma, LC/MS/MS)
Type: in vivo, human
Conditions: for accumulation: cancer patients; for dose dependence of Cmax and AUC: 10-400 mg QD and 400 mg BID; for half-life: read-out: T1/2 (converted)
Description: A pharmaceutical formulation of the disclosure comprising the active ingredient N-(3-(2-(6-amino-4-(trifluoromethyl)pyridin-3-yl)-4-morpholinopyrido[3,2-d]pyrimidin-6-yl)-2-fluorophenyl)-3-fluoropropane-1-sulfonamide was evaluated for safety/tolerability and preliminary efficacy in eligible human subjects with advanced solid tumors, and the pharmacokinetic (PK) profile of the active ingredient was investigated for each subject. Eligibility criteria for inclusion in this study included:
Fifteen eligible patients were enrolled in total daily dose levels ranging from 10-800 mg per day of the active ingredient, provided as 10-mg, 20-mg, 80-mg and 120-mg tablets for oral administration. Dose escalation is ongoing. All study medication supplies were provided by Asana BioSciences, LLC (Bridgewater, N.J.). The tablets were administered orally every 12-24 hours on an empty stomach (either 1 hour before or 2 hours after a meal or snack) with approximately 240 mL of water. On study days in which there was a single plasma PK sample taken, the subject was instructed to fast for at least 2 hours prior to collection of the PK sample. On study days with multiple plasma PK samples taken, the subject was instructed to fast overnight (at least 8 hours prior to study drug administration) and remain fasting for 2 hours after study drug administration. The date and time of the dose(s) taken prior to or on PK sampling days were collected by the study site or catalogued via a diary card provided to the subject.
An ultra performance liquid chromatographic method was used for the determination of the active ingredient in human EDTA K2 plasma. This method was validated over an analytical range of 0.5 to 500 ng/mL. Calibration standards (CS) and quality control (QC) samples at three or four levels of concentrations were prepared fresh from the appropriate working solutions which were stored at −20° C. The human EDTA K2 plasma used for the preparation of CS and QC samples was obtained from Bioreclamation (Westbury, Pa., USA) and analyzed to determine possible interference with the analyte or the internal standard, and no significant interference was observed. The following parameters were used to determine analyte levels in the plasma samples: […]

[1] = Day 1, 40 mg, individual subjects
[2] = Day 1, 80 mg, individual subjects
[3] = Day 1, 240 mg, individual subjects
[4] = Day 1, 400 QD mg, individual subjects
[5] = Day 1, 400 bid mg, individual subjects
[6] = Day 15, 40 mg, individual subjects
[7] = Day 15, 80 mg, individual subjects
[8] = Day 15, 240 mg, individual subjects
[9] = Day 15, 400 QD mg, individual subjects
[10] = human subjects, listed as active ingredient

## Nc1cc(C(F)(F)F)c(-c2nc(N3CCOCC3)c3nc(-c4cccc(NS(=O)(=O)CCCF)c4F)ccc3n2)cn1 [CMPD A, N-(3-(2-(6-amino-4-(trifluoromethyl)pyridin-3-yl)-4-morpholinopyrido[3,2-d]pyrimidin-6-yl)-2-fluorophenyl)-3-fluoropropane-1-sulfonamide]
BID administration
  accumulation: ~3 fold
[1]
  AUC0-24: 1400 ng·h/mL and 5510 ng·h/mL
  Cmax: 96.2 ng/mL and 289 ng/mL
  T1/2: 17.6 h
[2]
  AUC0-24: 8090 ng·h/mL and 4010 ng·h/mL
  Cmax: 300 ng/mL
  Tmax: 24 h
[3]
  AUC0-24: 9560 ng·h/mL and 4300 ng·h/mL
  Cmax: 744 ng/mL and 295 ng/mL
  T1/2: 23.9 h and 11.0 h
[4]
  AUC0-24: 3200 ng·h/mL and 26700 ng·h/mL
  Cmax: 264 ng/mL and 1870 ng/mL
  T1/2: 15.6 h
[5]
  AUC0-24: 20400 ng·h/mL
  Cmax: 1430 ng/mL
  T1/2: 15.0 h
Day 15, 10 mg, n=1
  RAUCtau: 1.5
  RCmax: 1.3
Day 15, 20 mg, n=1
  RAUCtau: 2.1
  RCmax: 1.5
[6]
  AUC0-24: 2580 ng·h/mL and 9190 ng·h/mL
  Cmax: 173 ng/mL and 523 ng/mL
  RAUCtau: 1.9 and 2.3
  RCmax: 1.8, 1.8
  T1/2: 22.5 h and 47.8 h
[7]
  AUC0-24: 21300 ng·h/mL
  Cmax: 1179 ng/mL
  RAUCtau: 2.4 and 5.3
  RCmax: 2.0 and 4.0
  Tmax: 24 h
Day 15, 120 mg, n=3, range
  RAUCtau: 1.2-1.9
  RCmax: 0.8-2.4
[8]
  AUC0-24: 26000 ng·h/mL and 3740 ng·h/mL
  Cmax: 1610 ng/mL and 299 ng/mL
  RAUCtau: 2.7 and 0.9
  RCmax: 2.2 and 1.0
  T1/2: 29.0 h and 10.3 h
  Tmax: (2, 2) hr
[9]
  AUC0-24: 41300 ng·h/mL
  Cmax: 2930 ng/mL
  RAUCtau: 8.0 and 1.55
  RCmax: 10.5 and 1.57
  T1/2: 11.7 h
  Tmax: 1 h
Day 15, 400 bid mg, n=1
  RAUCtau: 3.76
  RCmax: 2.53
QD administration
  accumulation: ~2 fold
Human subjects
  variability of pharmacokinetic parameters: Moderate to high inter-and intra-subject variability
  dose dependence of Cmax and AUC: Dose-dependent Cmax and AUC
[10]
  dose dependence of Cmax and AUC: generally dose-dependent Cmax and AUC
  variability of pharmacokinetic parameters: moderate inter-subject variability
Human subjects, oral tablets
  accumulation in AUC at steady state: approximately 2 fold
  t1/2 (rate of elimination): Moderate rate of elimination (t1/2 10-25 hours)
human, plasma, oral, 10 mg, Day 1, 10 mg, n=1, read-out: AUC0-24
  AUC(0-t): 622 ng·h/mL
human, plasma, oral, 10 mg, Day 1, 10 mg, n=1, read-out: Cmax
  Cmax: 58 ng/mL
human, plasma, oral, 10 mg, Day 1, 10 mg, n=1
  half-life: 16.1 h
human, plasma, oral, 10 mg, Day 1, 10 mg, n=1, read-out: Tmax
  Tmax: 4 h
human, plasma, oral, 10 mg, Day 15, 10 mg, n=1, read-out: AUC0-24
  AUC(0-t): 912 ng·h/mL
human, plasma, oral, 10 mg, Day 15, 10 mg, n=1, read-out: Cmax
  Cmax: 74 ng/mL
human, plasma, oral, 10 mg, Day 15, 10 mg, n=1, read-out: Tmax
  Tmax: 4 h
human, plasma, oral, 10 mg, steady state, 10 QD mg, n=1, cancer patients, read-out: AUC0-24h
  AUC(0-t): 912 ng·h/mL
human, plasma, oral, 10 mg, steady state, 10 QD mg, n=1, cancer patients, read-out: Cmax
  Cmax: 74 ng/mL
human, plasma, oral, 10 mg, steady state, 10 QD mg, n=1, cancer patients, read-out: Tmax
  Tmax: 4 h
human, plasma, oral, 20 mg, Day 1, 20 mg, n=1, read-out: AUC0-24
  AUC(0-t): 1480 ng·h/mL
human, plasma, oral, 20 mg, Day 1, 20 mg, n=1, read-out: Cmax
  Cmax: 101 ng/mL
human, plasma, oral, 20 mg, Day 1, 20 mg, n=1
  half-life: 13.7 h
human, plasma, oral, 20 mg, Day 1, 20 mg, n=1, read-out: Tmax
  Tmax: 8 h
human, plasma, oral, 20 mg, Day 15, 20 mg, n=1, read-out: AUC0-24
  AUC(0-t): 3160 ng·h/mL
human, plasma, oral, 20 mg, Day 15, 20 mg, n=1, read-out: Cmax
  Cmax: 149 ng/mL
human, plasma, oral, 20 mg, Day 15, 20 mg, n=1
  half-life: 127 h
human, plasma, oral, 20 mg, Day 15, 20 mg, n=1, read-out: Tmax
  Tmax: 8 h
human, plasma, oral, 20 mg, steady state, 20 QD mg, n=1, cancer patients, read-out: AUC0-24h
  AUC(0-t): 3160 ng·h/mL
human, plasma, oral, 20 mg, steady state, 20 QD mg, n=1, cancer patients, read-out: Cmax
  Cmax: 149 ng/mL
human, plasma, oral, 20 mg, steady state, 20 QD mg, n=1, cancer patients, read-out: Tmax
  Tmax: 8 h
human, plasma, oral, 40 mg, Day 1, 40 mg, individual subjects
  half-life: 18.2 h
human, plasma, oral, 40 mg, Day 1, 40 mg, n=2, mean, read-out: AUC0-24
  AUC(0-t): 2670 ng·h/mL
human, plasma, oral, 40 mg, Day 1, 40 mg, n=2, mean, read-out: Cmax
  Cmax: 192 ng/mL
human, plasma, oral, 40 mg, Day 1, 40 mg, n=2, mean
  half-life: 17.9 h
human, plasma, oral, 40 mg, Day 1, 40 mg, n=2, mean, read-out: Tmax
  Tmax: 5 h
human, plasma, oral, 40 mg, Day 15, 40 mg, individual subjects, read-out: Tmax
  Tmax: 4 h
human, plasma, oral, 40 mg, Day 15, 40 mg, n=2, mean, read-out: AUC0-24
  AUC(0-t): 5890 ng·h/mL
